Source: the NIST ThermoML archive (doi:10.1016/j.fluid.2013.11.023)
± gives the expanded uncertainty stated by the source.

Settings: Crystal; DTA

`Brc1sc(Br)c(Br)c1Br` [perbromothiophene] gave a Normal melting temperature of 118.60 ± 4 °C.
